Measurements reported in patent publication US20240083845A1 (priority 2020, published 2024).

Target: SARS-CoV-2 Mpro (Severe acute respiratory syndrome coronavirus 2, UniProt P0DTD1)
Test: SARS-CoV-2 Mpro enzyme assay (FRET)
Type: biochemical
Settings: FRET substrate Dabcyl-KTSAVLQSGFRKM-E(Edans)-Amide, 20 nM enzyme, 30 min preincubation at 30° C., mean n=2; read-out: SARS-CoV-2 Mpro enzyme assay pKi (converted)

## CCNC(=O)C(=O)C(C[C@@H]1CCNC1=O)NC(=O)[C@H](CC1CC1)NC(=O)/C=C/c1ccc(Cl)cc1Cl (stereo partly drawn) [Example 24, 3-((S)-3-cyclopropyl-2-((E)-3-(2,4-dichlorophenyl)acrylamido)propanamido)-N-ethyl-2-oxo-4-((S)-2-oxopyrrolidin-3-yl)butanamide]
  Ki: 12.6 nM

## O=C(/C=C/c1ccc(Cl)cc1Cl)N[C@@H](CC1CC1)C(=O)NC(C[C@@H]1CCNC1=O)C(=O)C(=O)NC1CC1 (stereo partly drawn) [Example 25, N-cyclopropyl-3-((S)-3-cyclopropyl-2-((E)-3-(2,4-dichlorophenyl)acrylamido)propanamido)-2-oxo-4-((S)-2-oxopyrrolidin-3-yl)butanamide]
  Ki: 10 nM

## CCNC(=O)C(=O)C(C[C@@H]1CCNC1=O)NC(=O)[C@H](CC(C)(C)C)NC(=O)/C=C/c1ccc(Cl)cc1Cl (stereo partly drawn) [Example 26, (2S)-2-((E)-3-(2,4-dichlorophenyl)acrylamido)-N-(4-(ethylamino)-3,4-dioxo-1-((S)-2-oxopyrrolidin-3-yl)butan-2-yl)-4,4-dimethylpentanamide]
  Ki: 10 nM

## CC(C)(C)C[C@H](NC(=O)/C=C/c1ccc(Cl)cc1Cl)C(=O)NC(C[C@@H]1CCNC1=O)C(=O)C(N)=O (stereo partly drawn) [Example 27, (2S)-N-(4-amino-3,4-dioxo-1-((S)-2-oxopyrrolidin-3-yl)butan-2-yl)-2-((E)-3-(2,4-dichlorophenyl)acrylamido)-4,4-dimethylpentanamide]
  Ki: 7.94 nM

## O=C(/C=C/c1ccc(Cl)cc1F)N[C@@H](CC1CC1)C(=O)NC(C[C@@H]1CCNC1=O)C(=O)C(=O)NC1CC1 (stereo partly drawn) [Example 28, 3-((S)-2-((E)-3-(4-chloro-2-fluorophenyl)acrylamido)-3-cyclopropylpropanamido)-N-cyclopropyl-2-oxo-4-((S)-2-oxopyrrolidin-3-yl)butanamide]
  Ki: 15.8 nM

## O=C(N[C@@H](CC1CC1)C(=O)NC(C[C@@H]1CCNC1=O)C(=O)C(=O)NC1CC1)OCc1ccccc1 (stereo partly drawn) [Example 29, benzyl ((2S)-3-cyclopropyl-1-((4-(cyclopropylamino)-3,4-dioxo-1-((S)-2-oxopyrrolidin-3-yl)butan-2-yl)amino)-1-oxopropan-2-yl)carbamate]
  Ki: 15.8 nM

## O=C(CCc1ccc(Cl)cc1Cl)N[C@@H](CC1CC1)C(=O)NC(C[C@@H]1CCNC1=O)C(=O)C(=O)NC1CC1 (stereo partly drawn) [Example 30, N-cyclopropyl-3-((S)-3-cyclopropyl-2-(3-(2,4-dichlorophenyl)propanamido)propanamido)-2-oxo-4-((S)-2-oxopyrrolidin-3-yl)butanamide]
  Ki: 20 nM

## O=C(/C=C/c1ccc(Cl)cc1F)N[C@@H](CC1CCC1)C(=O)NC(C[C@@H]1CCNC1=O)C(=O)C(=O)NC1CC1 (stereo partly drawn) [Example 31, 3-((S)-2-((E)-3-(4-chloro-2-fluorophenyl)acrylamido)-3-cyclobutylpropanamido)-N-cyclopropyl-2-oxo-4-((S)-2-oxopyrrolidin-3-yl)butanamide]
  Ki: 25.1 nM

## CC[C@@H](CC(=O)N[C@@H](CC1CC1)C(=O)NC(C[C@@H]1CCNC1=O)C(=O)C(=O)NC1CC1)c1ccccc1 (stereo partly drawn) [Example 32, (3 S)-N-((2S)-3-cyclopropyl-1-((4-(cyclopropylamino)-3,4-dioxo-1-((S)-2-oxopyrrolidin-3-yl)butan-2-yl)amino)-1-oxopropan-2-yl)-3-phenylpentanamide]
  Ki: 12.6 nM

## CC[C@H](CC(=O)N[C@@H](CC1CC1)C(=O)NC(C[C@@H]1CCNC1=O)C(=O)C(=O)NC1CC1)c1ccccc1 (stereo partly drawn) [Example 33, (3R)-N-((2S)-3-cyclopropyl-1-((4-(cyclopropylamino)-3,4-dioxo-1-((S)-2-oxopyrrolidin-3-yl)butan-2-yl)amino)-1-oxopropan-2-yl)-3-phenylpentanamide]
  Ki: 25.1 nM
